Square brackets hold non-standard residues; d marks the D form. Peptide text beside a SMILES is read from it.
Experiments:
human whole blood = assay: LPS-induced IL-6 release in human whole blood; format: cell-based; settings: 1, 3, 10 μM 1 h before LPS (0.02 ng/mL), 4 hours
Protocol: FIG. 18 JNK inhibition and IL-6 release in human whole blood. The JNK inhibitor with SEQ ID NO: 172 was added at three different concentrations, namely 1, 3 and 10 μM 1 h before whole blood stimulation with LPS (0.02 ng/mL) for 4 hours.
Whole blood is collected from anesthetized rat or human healthy volunteers using a venipuncture connected to a pre-labeled vacuum tube containing sodium citrate. Tubes are gently mixed by inversion 7-8 times; and are then kept at RT until stimulation. JNK inhibitor of SEQ ID NO: 172 is prepared 6 times concentrated in PBS, and 30 μl/well of mix is added into 96-well plate. Whole blood is diluted by 1:2 in PBS and 120 μl of diluted blood is added in each well where either PBS alone or JNK inhibitor of SEQ ID NO: 172 has been previously added. Whole blood is incubated at 37° C.; 85 rpm (Stuart Orbital incubator SI500) for 60 min. Activators (LPS) are the prepared, 30 μl/well of LPS, 6 times concentrated. After 60 min incubation, LPS is added to the blood, blood is mixed by pipetting up and down, and then kept for 4 h under agitation (85 rpm), at 37° C. […] Cytokine (IL-6, IL-2, IFNγ and TNFα) were then measured using standard Elisa kits (e.g. from R&D Systems: DuoSet Elisas; or from BD Biosciences: BD Opteia Set Elisa). Results are expressed as pg/ml of supernatant of the measured cytokine.

PKR−/− neurons = assay: Neuronal apoptosis after Aβ42 stress in PKR−/− primary cortical neurons; format: cell-based, mouse
Protocol: To obtain primary cortical neuronal cultures, E15.5 mice embryos were dissected in PBS (Phosphate Buffered Saline) 6% glucose, on ice. Embryos cortices were minced into small pieces and treated with PBS glucose trypsin (Sigma Aldrich, Saint-Louis, USA) for 20 min at 37° C. Dissociated cortical cells were cultured in Neurobasal media complemented with B27, Glutamax and penicillin-streptomycin (Gibco). Neurons were cultured at 37° C., 5% CO2 on pre-coated with poly-L-lysin (Sigma Aldrich) petri dishes. Neurons were cultured to maturity (7 days) before use.
To induce […] stress 2 μM of Aβ1-42 (Thermo Fisher Scientific, Mass., USA) were used during 5 h on cortical neurons. Aβ42-1 inversed peptide (Thermo Fisher Scientific) was used as negative control. AP 1-42 and Aβ42-1 were dissolved in pure water and incubated at 37° C. for 48 h before use.
To inhibit JNK, cortical neurons were pre-treated with 10 μM of XG-104 1 h before cell-stress treatment.
For immunoblot analysis cells were lysed on ice in a lysis buffer containing […] NaPi pH 7.8, […] NaCl, 1% Triton, 0.5% DOC, 0.1% SDS, 10% glycerol, 0.1 μM calyculin A, 1 mM Na3VO4 and 1× of a protease inhibitor cocktail (Sigma Aldrich). Lysates were sonicated and centrifugated 10 min at 15000 g at 4° C. The supernatant protein concentration was determined with the Micro BCA protein assay kit (Thermo Scientific). Thirty micrograms of proteins were resolved on SDS-PAGE and transferred onto nitrocellulose membrane. After blocking with TBS 5% skim milk, the membranes were probed with primary antibodies to JNK full, c-Jun, PKR, eIF2α (Santa Cruz, Danvers, USA), pJNK (Millipore, Billerica, USA), phosphor eIF2a (Thermo Fisher Scientific), PARP and tubulin (Cell Signaling, Danvers, USA). IR Dyes 800 and 700 (Rockland Immunochemical Inc, Gilbertsville, USA) antibodies were used as secondary antibodies. Blots were reveled with Odyssey imaging system (LI-COR Biosciences, Lincoln, USA).
For caspase 3 activity analysis culture cell supernatants containing degenerating and dead neurons, and cell medium were collected in parallel of adhesive neurons lysis. Culture cell supernatants were centrifugated 10 min at 15000 g at 4° C. Pellets were then resuspended in lysis buffer and caspase 3 activity was measured by using the Caspase 3 Assay kit reagents and protocol (Abcam, Cambridge, UK).

[1] = PKR−/− neurons, 10 μM, vs Aβ42 treated PKR−/− neurons
[2] = dual inhibition of PKR and JNK, vs treated WT neurons

CC(C)C[C@H](NC(=O)[C@H](CC(N)=O)NC(=O)[C@H](CC(C)C)NC(=O)[C@@H](NC(=O)[C@@H](C)NC(=O)[C@@H]1CCCN1C(=O)[C@H](CCCNC(=N)N)NC(=O)[C@@H](CCCCN)NC(=O)[C@@H]1CCCN1C(=O)[C@H](CCCNC(=N)N)NC(=O)[C@@H](CCCNC(=N)N)NC(=O)[C@H](CCCNC(=N)N)NC(=O)[C@H](CCCNC(=N)N)NC(=O)[C@H](CCC(N)=O)NC(=O)[C@@H](CCCNC(=N)N)NC(=O)[C@H](CCCNC(=N)N)NC(=O)[C@H](CCCCN)NC(=O)[C@H](CCCCN)NC(=O)[C@H](N)CCCNC(=N)N)[C@@H](C)O)C(=O)N[C@H](Cc1ccccc1)C(N)=O [SEQ ID NO: 172, rKKRrQRRrRPkRPaTLNLf] (H-[dR]KKR[dR]QRR[dR]RP[dK]RP[dA]TLNL[dF]-NH2; N-terminus assumed)
LPS-induced IL-6 release (human whole blood): did reduce the LPS-induced IL-6 release in a dose-dependent manner | decrease of caspase 3 activity (PKR−/− neurons; [1]): 61% | decrease of cleaved PARP expression level (PKR−/− neurons; [1]): 86% | decrease of cleaved caspase 3 expression level (PKR−/− neurons; [1]): 42% | decrease of PARP expression levels (PKR−/− neurons; [2]): 93% | decrease of caspase 3 activity (PKR−/− neurons; [2]): 87% | decrease of cleaved caspase 3 (PKR−/− neurons; [2]): 83%

— patent publication US11331364B2, “Use for JNK inhibitor molecules for treatment of various diseases” (Xigen Inflammation Ltd., priority 2014, dated 2022)
